Assay results taken from patent publication US20250144047A1, “PHARMACEUTICAL COMPOSITION FOR PREVENTING, AMELIORATING, OR TREATING CANCER CONTAINING 8-PARADOL” (KDBIO CORP., priority 2022, published 2025).

Assays:
[1] = tested on: AGS xenograft tumor tissue; assay: Western blot of tumor tissue of xenograft mice; format: in vivo; settings: tumor tissue, oral 5 mg/kg, compared to control group
Experimental: For whole protein extraction, AGS cells were processed with samples at various concentrations for 24 hours. The cells were dissolved using Pierce™ RIPA buffer (Thermo Fisher Scientific, Rockford, IL, USA) together with protease inhibitor cocktail (GenDEPOT, TX, USA). The cell-dissolved solution formed in the above manner was centrifuged at 12,000 rpm for 20 minutes. The protein was loaded into a 10% SDS-PAGE gel using a protein gel electrophoresis chamber system and transferred to a PVDF membrane (Thermo Fisher Scientific, Rockford, IL, USA). A PBST solution containing 5% skim milk was used to block the membrane at 25° C. for 1 hour. Then, the membrane was incubated overnight at 4° C. with primary antibodies. Finally, the membrane was incubated with the secondary antibodies at 25° C. for 1 hour, and a protein band was detected using West-Q Pico ECL Solution (GenDEPOT, TX, USA). The results were quantified using ImageJ software.
Each mouse was orally administered with 8-paradol and 5-FU once a day for a total of 16 days. The control group was administered with only 0.9% of general saline during this period. Body weights and tumor volumes of the mice were measured daily in all mice during the study period. All mice were euthanized after the end of the experiments. Blood, liver, spleen, kidney, and tumor tissues were extracted and weighed. In order to obtain the protein of tumor tissue, a portion of the tissue was processed with RIPA buffer containing a protease inhibitor cocktail. Then, the expression degree of a specific protein (determined by Western blot) was determined.

[2] = tested on: AGS xenograft tumor tissue; assay: IHC staining of tumor tissue; format: in vivo; settings: tumor tissue of administered mice
Experimental: The tumor tissue was fixed with 10% formalin and embedded with paraffin. Immunohistochemical (IHC) staining was performed using a mouse and rabbit-specific HRP/DAB (ABC) detection IHC kit (Abcam, Cambridge, MA, USA). The tissue was observed through an optical microscope, and the presence of a specific protein in the tumor tissue was determined to be the presence of a brown yellow color. The results were evaluated using ImageJ software.

AGS cells = settings: for dose at which significant toxicity to AGS cells was not exhibited: MTT; for IC50: read-out: IC50 on AGS cells, 24 hours, MTT assay; for dose at which significant toxicity to AGS cells was not exhibited / IC50: AGS cells
Experimental: AGS cells were grown in RPMI medium containing 10% FBS and 1% PS. HEK293 and RAW264.7 cells were grown in DMEM medium containing 10% FBS and 1% PS under conditions of 37° C., 5% CO2 and 95% air.
In order to evaluate toxicity to each cell, the sample was incubated in each cell (1×10^5 cells/well) cultured in the above manner for 24 hours, and then cytotoxicity to each cell was examined by using the MTT assay.

[3] = design: species or system mice; settings: mouse, in vivo, po, 5 mg/kg
Experimental: Male nude mice (CAnN.Cg-Foxn1-nu, 4 weeks old, 20 g to 22 g) were purchased from OrientBio (Seongnam, Republic of Korea). The mice were placed in a chamber with conditions maintained at 23° C. and 50% humidity with a period of 12 hours of light and 12 hours of darkness. All animal experiments were conducted according to the National Institutes of Health's Laboratory Animal Care and Use Guidelines (NIH Publications No. 8023, revised 1996) and the Kyung Hee University's Animal Care and Use Guidelines ([…]-441, approval data: Sep. 28, 2021). […] The control group was administered with only 0.9% of general saline during this period. Body weights and tumor volumes of the mice were measured daily in all mice during the study period. All mice were euthanized after the end of the experiments. Blood, liver, spleen, kidney, and tumor tissues were extracted and weighed. In order to obtain the protein of tumor tissue, a portion of the tissue was processed with RIPA buffer containing a protease inhibitor cocktail. Then, the expression degree of a specific protein (determined by Western blot) was determined. […] Fuji Dri-Chem analyzer (3500, Fuji Photo Film Co., Osaka, Japan) was used to measure alanine aminotransferase (ALT), aspartate aminotransferase (AST), total bilirumin (T-Bili), total protein (TP), albumin (Alb), albumin/globulin (A/G) ratio, total cholesterol (T-Chol), total triglyceride (TG), glucose (GLU), and blood urea nitrogen (BUN) values.

O=c1[nH]cc(F)c(=O)[nH]1 [5-FU, 5-fluorouracil]
protein expressions of LC3, Pink1, Parkin, Bax, Cytochrome-c, cleaved-caspase-3/caspase-3, Cleaved-caspase-9/caspase-9, p62 and Bcl-2 [1]: lower | density of LC3 and caspase-3 in tumor tissue [2]: increased | cytotoxicity to AGS cells (AGS cells): strong toxicity | A/G (albumin/globulin) [3]: 0.52 ratio | ALT (alanine aminotransferase) [3]: 101.6 U/L | AST (aspartate aminotransferase) [3]: 204.9 U/L | Alb (albumin) [3]: 1.7 g/dL | BUN (blood urea nitrogen) [3]: 26.7 mg/dL | Crea (creatinine) [3]: 0.34 mg/dL | GLU (glucose) [3]: 56 mg/dL | T-Bili (total bilirubin) [3]: 0.08 mg/dL | T-Chol (total cholesterol) [3]: 124 mg/dL | TG (triglyceride) [3]: 34 mg/dL | TP (total protein) [3]: 5.1 g/dL

N#CC(C#N)=NNc1cccc(Cl)c1 [CCCP, carbonyl cyanide m-chlorophenylhydrazone, reference compound]
dose at which significant toxicity to AGS cells was not exhibited (AGS cells): less than 15 μM

CCCCCCCC(=O)CCc1ccc(O)c(OC)c1 [Purified Compound 1, 6-paradol]
IC50 (AGS cells): 25.7 ± 1.87 µM

CCCCC[C@H](O)CC(=O)CCc1ccc(O)c(OC)c1 [Purified Compound 2, 6-gingerol]
IC50 (AGS cells): 178 ± 2.51 µM

CCCCCCC[C@H](O)CC(=O)CCc1ccc(O)c(OC)c1 [Purified Compound 4, 8-gingerol]
IC50 (AGS cells): 33.2 ± 1.21 µM

CCCCCCCCC[C@H](O)CC(=O)CCc1ccc(O)c(OC)c1 [Purified Compound 5, 10-gingerol]
IC50 (AGS cells): 16.1 ± 2.32 µM

CCCCC/C=C/C(=O)CCc1ccc(O)c(OC)c1 [Purified Compound 6, 6-shogaol]
IC50 (AGS cells): 32.9 ± 2.26 µM

CCCCCCC/C=C/C(=O)CCc1ccc(O)c(OC)c1 [Purified Compound 7, 8-shogaol]
IC50 (AGS cells): 45.6 ± 3.6 µM

CCCCCCCCC/C=C/C(=O)CCc1ccc(O)c(OC)c1 [Purified Compound 8, 10-shogaol]
IC50 (AGS cells): 64.5 ± 1.98 µM

CO[C@H]1C[C@@H]2CC[C@@H](C)[C@@](O)(O2)C(=O)C(=O)N2CCCC[C@H]2C(=O)O[C@H]([C@H](C)C[C@@H]2CC[C@@H](O)[C@H](OC)C2)CC(=O)[C@H](C)/C=C(\C)[C@@H](O)[C@@H](OC)C(=O)[C@H](C)C[C@H](C)/C=C/C=C/C=C/1C [rapamycin, reference compound]
dose at which significant toxicity to AGS cells was not exhibited (AGS cells): less than 6 μM
